# How the values were obtained:
# [1] = target: human α7 neuronal nicotinic receptor (Homo sapiens, UniProt P36544); assay: biochemical; assay type: binding; details: read-out: % inhibition N neuronal alpha-BGTX-sensitive (alpha 7) (antagonist radioligand)
# [2] = target: human muscle-type nicotinic receptor (Homo sapiens, UniProt P02708+P07510+Q07001); assay: biochemical; assay type: binding; details: read-out: % inhibition N muscle-type (h) (antagonist radioligand)
# [3] = target: T1, human dopamine D1 receptor (Homo sapiens, UniProt P21728); assay: Human dopamine D1 receptor radioligand binding assay (antagonist radioligand); details: 1 μmmole test compound; 0.3 nM [3H]SCH 23390; transfected CHO cell membranes; one single experiment; 0.0003 µM
# T1 construct: expressed in transfected cells; host or cells: CHO cells (membrane homogenates)
# Procedure: Human Dopamine D1 Receptor (Antagonist Radioligand):
# The purpose is to evaluate the affinity of compounds for the human dopamine D1 receptor in transfected CHO cells determined in a radioligand binding assay according to Zhou et al in Nature (1990) 347:76. The experimental protocol is as follows. Cell membrane homogenates (48 μg protein) are incubated for 60 minutes at 22° C. with 0.3 nM [^3H]SCH 23390 in the absence or presence of the test compound in a buffer containing 50 mM Tris-HCl (pH 7.4), 5 mM KCl, 5 mM MgCl2, 1.5 mM CaCl2 and 5 mM EDTA. Non-specific binding is determined in the presence of 1 μM SCH 23390. Following incubation, the samples are filtered rapidly under vacuum through glass fiber filters (GF/B, Packard) presoaked with 0.3% PEI and rinsed several times with ice-cold 50 mM Tris-HCl using a 96-sample cell harvester (Unifilter, Packard). The filters are dried then counted for radioactivity in a scintillation counter (Topcount, Packard) using a scintillation cocktail (Microscint 0, Packard). The results are expressed as a percent inhibition of the control radioligand specific binding. The standard reference compound is SCH 23390, which is tested in each experiment at several concentrations to obtain a competition curve from which its IC50 is calculated, and from which the % inhibition at 1 μM as indicated in the following table is obtained.
# [4] = relative to morphine; cited from earlier work
# T1 sequence (P21728 whole entry): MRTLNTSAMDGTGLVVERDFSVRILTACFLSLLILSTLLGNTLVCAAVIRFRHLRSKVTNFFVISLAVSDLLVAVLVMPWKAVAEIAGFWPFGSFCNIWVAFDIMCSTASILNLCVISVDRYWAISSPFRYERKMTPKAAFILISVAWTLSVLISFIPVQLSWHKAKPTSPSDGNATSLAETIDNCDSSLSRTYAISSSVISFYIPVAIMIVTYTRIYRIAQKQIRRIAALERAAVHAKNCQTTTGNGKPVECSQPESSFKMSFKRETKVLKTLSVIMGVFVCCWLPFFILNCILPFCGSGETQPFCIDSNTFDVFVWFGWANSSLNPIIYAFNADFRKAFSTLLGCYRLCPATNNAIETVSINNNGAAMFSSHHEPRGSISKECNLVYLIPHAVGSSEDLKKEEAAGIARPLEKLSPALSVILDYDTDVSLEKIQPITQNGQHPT
# human muscle-type nicotinic receptor, sequence (P07510 23-517): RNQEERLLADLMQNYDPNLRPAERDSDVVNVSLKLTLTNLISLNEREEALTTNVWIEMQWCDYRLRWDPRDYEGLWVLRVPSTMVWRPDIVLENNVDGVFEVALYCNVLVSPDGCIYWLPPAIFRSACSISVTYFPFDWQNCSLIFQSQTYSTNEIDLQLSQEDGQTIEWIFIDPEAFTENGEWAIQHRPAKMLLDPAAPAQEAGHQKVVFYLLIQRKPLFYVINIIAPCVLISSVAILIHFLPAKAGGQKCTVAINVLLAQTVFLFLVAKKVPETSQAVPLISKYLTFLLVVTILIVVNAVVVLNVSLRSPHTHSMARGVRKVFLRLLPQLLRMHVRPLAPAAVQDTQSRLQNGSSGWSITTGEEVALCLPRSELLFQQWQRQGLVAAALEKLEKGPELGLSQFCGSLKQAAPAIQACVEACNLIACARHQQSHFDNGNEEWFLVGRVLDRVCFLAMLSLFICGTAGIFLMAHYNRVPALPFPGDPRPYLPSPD
# human muscle-type nicotinic receptor, sequence (Q07001 22-517): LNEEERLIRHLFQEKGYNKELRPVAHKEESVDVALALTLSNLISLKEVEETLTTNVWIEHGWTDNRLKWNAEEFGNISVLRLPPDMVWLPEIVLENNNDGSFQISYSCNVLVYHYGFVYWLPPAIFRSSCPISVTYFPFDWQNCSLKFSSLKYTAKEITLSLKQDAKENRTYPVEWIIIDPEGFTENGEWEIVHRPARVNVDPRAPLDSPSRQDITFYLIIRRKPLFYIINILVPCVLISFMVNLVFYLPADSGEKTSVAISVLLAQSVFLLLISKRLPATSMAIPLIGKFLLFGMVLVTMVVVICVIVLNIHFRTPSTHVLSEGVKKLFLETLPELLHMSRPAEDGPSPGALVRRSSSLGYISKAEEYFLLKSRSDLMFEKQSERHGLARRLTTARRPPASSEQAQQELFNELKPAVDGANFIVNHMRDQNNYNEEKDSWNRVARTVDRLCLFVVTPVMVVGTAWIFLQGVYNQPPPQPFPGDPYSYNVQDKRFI
# human muscle-type nicotinic receptor, sequence (P02708 21-457): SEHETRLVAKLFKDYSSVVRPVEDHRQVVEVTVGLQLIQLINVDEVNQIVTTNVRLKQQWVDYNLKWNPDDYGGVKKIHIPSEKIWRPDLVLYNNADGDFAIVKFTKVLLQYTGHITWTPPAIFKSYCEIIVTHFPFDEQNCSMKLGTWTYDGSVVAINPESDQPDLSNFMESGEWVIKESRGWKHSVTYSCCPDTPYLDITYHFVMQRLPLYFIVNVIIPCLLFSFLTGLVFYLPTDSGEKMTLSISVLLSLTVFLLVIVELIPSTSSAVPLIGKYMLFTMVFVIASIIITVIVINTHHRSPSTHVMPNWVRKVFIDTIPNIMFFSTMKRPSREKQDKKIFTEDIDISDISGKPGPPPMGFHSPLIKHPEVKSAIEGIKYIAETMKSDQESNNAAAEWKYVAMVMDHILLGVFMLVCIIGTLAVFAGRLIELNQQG
# human muscle-type nicotinic receptor, sequence (P11230 24-501, further chain): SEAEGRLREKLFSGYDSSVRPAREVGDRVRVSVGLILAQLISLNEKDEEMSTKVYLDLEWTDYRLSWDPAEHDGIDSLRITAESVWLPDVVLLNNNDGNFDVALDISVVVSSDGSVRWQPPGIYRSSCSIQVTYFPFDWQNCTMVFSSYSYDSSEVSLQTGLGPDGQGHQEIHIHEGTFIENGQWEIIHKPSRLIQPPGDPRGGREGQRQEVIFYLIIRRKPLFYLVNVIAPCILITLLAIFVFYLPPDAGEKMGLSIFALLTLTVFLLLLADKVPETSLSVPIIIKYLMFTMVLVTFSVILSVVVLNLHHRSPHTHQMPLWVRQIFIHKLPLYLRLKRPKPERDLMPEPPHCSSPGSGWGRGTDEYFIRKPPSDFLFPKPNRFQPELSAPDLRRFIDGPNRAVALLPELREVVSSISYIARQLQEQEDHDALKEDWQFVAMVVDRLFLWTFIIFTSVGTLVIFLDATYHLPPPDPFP
# human α7 neuronal nicotinic receptor, sequence (P36544 23-502): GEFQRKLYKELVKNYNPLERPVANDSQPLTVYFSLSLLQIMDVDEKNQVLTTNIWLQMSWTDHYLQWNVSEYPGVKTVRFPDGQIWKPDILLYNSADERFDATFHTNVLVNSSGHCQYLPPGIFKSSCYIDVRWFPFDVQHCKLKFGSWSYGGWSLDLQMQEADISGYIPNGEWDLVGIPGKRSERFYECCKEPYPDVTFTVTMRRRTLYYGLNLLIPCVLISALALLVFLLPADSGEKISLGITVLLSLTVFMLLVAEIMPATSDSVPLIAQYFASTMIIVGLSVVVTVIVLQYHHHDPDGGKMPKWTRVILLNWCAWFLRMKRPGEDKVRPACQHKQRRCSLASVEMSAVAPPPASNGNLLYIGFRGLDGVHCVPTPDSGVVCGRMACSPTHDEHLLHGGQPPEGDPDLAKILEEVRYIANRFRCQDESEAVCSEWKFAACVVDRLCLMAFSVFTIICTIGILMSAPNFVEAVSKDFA
compound,measurement,setting,value
CCN1CCC2CC1(C(O)c1cccnc1)C2 (stereo not shown) [Compound 11],inhibition at 50 pM,[1],-1%
same,inhibition at 0.0005 µM,[2],17%
CCN1CCC2CC1(C(O)c1cccnc1)C2 (stereo not shown) [Compound 19a],% inhibition D1 (h) (antagonist radioligand),[3],9%
Clc1ccc(C2CC3CCC2N3)cn1 (stereo not shown) [epibatidine],analgesic potency higher than that of morphine,[4],about 200 fold

# From patent US8809365B2, “1-substituted 2-azabicyclo [3.1.1] heptyl derivatives useful as nicotinic acetylcholine receptor modulators for treating neurologic disorders” (Universiteit Gent, priority 2009, dated 2014)
